# Where “and” joins values, the source holds several entries; their conditions need not be identical. Equal values may be shown once.
# Key:
# corn (ZEAMD) = assay: Test H preemergence mixture test (Colby); format: in vivo, Zea mays; conditions: applied alone, 21 d, mean of three replicates, scale 0-100
# Description: (§1) Colby's Equation was used to determine the herbicidal effects expected from the mixtures. Colby's Equation (Colby, S. R. “Calculating Synergistic and Antagonistic Responses of Herbicide Combinations,” Weeds, 15(1), pp 20-22 (1967)) calculates the expected additive effect of herbicidal mixtures and for two active ingredients is of the form: Pa+b=Pa+Pb−(PaPb/100)
# (§2) where • Pa+b is the percentage effect of the mixture expected from additive contribution of the individual components: • Pa is the observed percentage effect of the first active ingredient at the same use rate as in the mixture, and • Pb is the observed percentage effect of the second active ingredient at the same use rate as in the mixture. In the following Tables, rates are shown in grams of active ingredient per hectare (g a.i./ha); “Obsd.” is the observed effect. “Exp.” is the expected effect calculated from Colby's Equation.
# (§3) This test evaluated the effect of mixtures of compound 80 with several commercial herbicides on four plant species. Seeds of plant species selected from corn (ZEAMD, Zea mays), soybean (GLXMA, Glycine max), waterhemp (common waterhemp, AMATA, Amaranthus rudis), and giant foxtail (SETFA, Setaria faberii) were planted into a silt loam soil and treated preemergence with test chemicals formulated in a non-phytotoxic solvent mixture which included a surfactant and applied using a volume of 281 L/ha. Each treatment was replicated three times. Treated plants and controls were maintained in a greenhouse using supplemental lighting to maintain a photoperiod of about 16 h; daytime and nighttime temperatures were about 24-30° C. and 19-21° C., respectively. Nutrients were applied using a balanced fertilizer applied through the watering system. At 21 d after treatment, all species were compared to controls and visually evaluated. Plant response ratings were calculated as the means of the three replicates, are summarized in Tables H1 through H5, and are based on a scale of 0 to 100 where 0 is no effect and 100 is complete control. A dash (-) response means no test result. The Expected (Exp.) results were calculated using Colby's Equation as described for Test G above.
# soybean (GLXMA) = assay: Test H preemergence mixture test (Colby); format: in vivo, Glycine max; conditions: applied alone, 21 d, mean of three replicates, scale 0-100
# Description: as §1, §2, §3
# waterhemp (AMATA) = assay: Test H preemergence mixture test (Colby); format: in vivo, Amaranthus rudis; conditions: applied alone, 21 d, mean of three replicates, scale 0-100
# Description: as §1, §2, §3
# giant foxtail (SETFA) = assay: Test H preemergence mixture test (Colby); format: in vivo, Setaria faberii; conditions: applied alone, 21 d, mean of three replicates, scale 0-100
# Description: as §1, §2, §3
# [1] = tested on: small-flower umbrella sedge (CYPDI); assay: Test G paddy mixture test (Colby); format: in vivo, Cyperus difformis; conditions: applied alone, 20 g a.i./ha; 14 d; scale 0-100
# Method: (§4) Seeds of small-flower umbrella […], Cyperus difformis) and […], Heteranthera limosa) were sown on the soil surface in two separate quadrants of 11-cm (4-inch) tubs filled with steam pasteurized Tama soil. Simultaneously, plantings of […], Echinochloa crus-galli) and transplanted japonica rice (ORYSA, Oryza sativa) were established in separate “plug” flats. […] Herbicide application timing was targeted at the 2.0 to 2.5 leaf stage and the plants were treated with test chemicals formulated in a non-phytotoxic solvent. Treated plants and controls were maintained in a greenhouse for 14 d, after which time all species were compared to controls and visually evaluated. Plant response ratings are summarized in Tables G1 through G12, and are based on a scale of 0 to 100 where 0 is no effect and 100 is complete control. A dash (-) response means no test result. Colby's Equation was used to determine the herbicidal effects expected from the mixtures. […] “Exp.” is the expected effect calculated from Colby's Equation.
# ducksalad (HETLI) = assay: Test G paddy mixture test (Colby); format: in vivo, Heteranthera limosa; conditions: applied alone, 20 g a.i./ha; 14 d; scale 0-100
# Method: as §4
# barnyardgrass (ECHCG) = assay: Test G paddy mixture test (Colby); format: in vivo, Echinochloa crus-galli; conditions: applied alone, 20 g a.i./ha; 14 d; scale 0-100
# Method: as §4
compound,measurement,setting,value
CCNc1nc(Cl)nc(NC(C)C)n1 [Atrazine],ZEAMD Obsd.,corn (ZEAMD); 62 g a.i./ha,0
same,ZEAMD Obsd.,corn (ZEAMD); 125 g a.i./ha,0
same,GLXMA Obsd.,soybean (GLXMA); 62 g a.i./ha,13
same,GLXMA Obsd.,soybean (GLXMA); 125 g a.i./ha,48
same,AMATA Obsd.,waterhemp (AMATA); 62 g a.i./ha,33
same,AMATA Obsd.,waterhemp (AMATA); 125 g a.i./ha,90
same,SETFA Obsd.,giant foxtail (SETFA); 62 g a.i./ha,0
same,SETFA Obsd.,giant foxtail (SETFA); 125 g a.i./ha,8
COC(=O)c1ccccc1CS(=O)(=O)NC(=O)Nc1nc(OC)cc(OC)n1 [Bensulfuron-methyl],CYPDI Obsd.,[1],100 and 98
same,HETLI Obsd.,ducksalad (HETLI),100
same,ECHCG Obsd.,barnyardgrass (ECHCG),65
CCOC(=O)c1ccccc1S(=O)(=O)NC(=O)Nc1nc(Cl)cc(OC)n1 [Chlorimuron-ethyl],ZEAMD Obsd.,corn (ZEAMD); 1 g a.i./ha,22
same,ZEAMD Obsd.,corn (ZEAMD); 31 g a.i./ha,73
same,GLXMA Obsd.,soybean (GLXMA); 1 g a.i./ha,0
same,GLXMA Obsd.,soybean (GLXMA); 31 g a.i./ha,22
same,AMATA Obsd.,waterhemp (AMATA); 1 g a.i./ha,47
same,AMATA Obsd.,waterhemp (AMATA); 31 g a.i./ha,89
same,SETFA Obsd.,giant foxtail (SETFA); 1 g a.i./ha,0
same,SETFA Obsd.,giant foxtail (SETFA); 31 g a.i./ha,47
